Data published in US10597390B2, “Indoles for use in influenza virus infection” (Janssen Sciences Ireland UC, priority 2014, dated 2020).

How the values were obtained:
in vitro = conditions: dog, TOX MDCK CC50
[1] = system: influenza virus A/Taiwan/1/86 (H1N1); assay: organism not typed; format: cell-based; conditions: MDCK, 72 h, CPE in MDCK cells, three days post-virus exposure, ATPlite

Row | Compound | CC50 at 3 days (in vitro) [µM] | melting point [°C] | IC50 [1] [µM]
1 | O=C(N[C@@H]1CCC[C@H](Nc2nc(-c3c[nH]c4c(F)cc(Cl)cc34)ncc2F)C1)c1ccsc1 [Compound 37] | 2.4 | > 300 | 0.001
2 | Nc1cccc(C(=O)N[C@@H]2CCC[C@H](Nc3nc(-c4c[nH]c5c(F)cc(Cl)cc45)ncc3F)C2)n1 [Compound 38] | 2.7 | 268.4 | 0.003
3 | Cc1cc(C(=O)N[C@@H]2CCC[C@H](Nc3nc(-c4c[nH]c5c(F)cc(Cl)cc45)ncc3F)C2)n(C)n1 [Compound 41] | 6 | 281.2 | 0.01
4 | O=C(N[C@@H]1CCC[C@H](Nc2nc(-c3c[nH]c4c(F)cc(Cl)cc34)ncc2F)C1)c1cnn[nH]1 [Compound 42] | 3.1 | 280.1 | 0.0005
5 | Cc1cc(C(=O)N[C@@H]2CCC[C@H](Nc3nc(-c4c[nH]c5c(F)cc(Cl)cc45)ncc3F)C2)n[nH]1 [Compound 43] | 2.7 | 189.2 | 0.004
6 | Cc1ncn(C)c1C(=O)N[C@@H]1CCC[C@H](Nc2nc(-c3c[nH]c4c(F)cc(Cl)cc34)ncc2F)C1 [Compound 45] | > 25 | > 300 | 0.033
7 | O=C(N[C@@H]1CCC[C@H](Nc2nc(-c3c[nH]c4c(F)cc(Cl)cc34)ncc2F)C1)c1ncccn1 [Compound 46] | 4.8 | 286.8 | 0.005
8 | Cc1scnc1C(=O)N[C@@H]1CCC[C@H](Nc2nc(-c3c[nH]c4c(F)cc(Cl)cc34)ncc2F)C1 [Compound 47] | 7.4 | > 300 | 0.003
9 | Cc1ocnc1C(=O)N[C@@H]1CCC[C@H](Nc2nc(-c3c[nH]c4c(F)cc(Cl)cc34)ncc2F)C1 [Compound 48] | 5 | 253.4 | 0.004
10 | Cn1nncc1C(=O)N[C@@H]1CCC[C@H](Nc2nc(-c3c[nH]c4c(F)cc(Cl)cc34)ncc2F)C1 [Compound 49] | > 25 | 249.6 | 0.009
11 | Cc1nc(C(=O)N[C@@H]2CCC[C@H](Nc3nc(-c4c[nH]c5c(F)cc(Cl)cc45)ncc3F)C2)no1 [Compound 50] | > 25 | 276.7 | 0.024
12 | O=C(N[C@@H]1CCC[C@H](Nc2nc(-c3c[nH]c4c(F)cc(Cl)cc34)ncc2F)C1)c1cc[nH]n1 [Compound 51] | 2.8 | 263.3 | 0.001
13 | Cn1cc(C(=O)N[C@@H]2CCC[C@H](Nc3nc(-c4c[nH]c5c(F)cc(Cl)cc45)ncc3F)C2)cn1 [Compound 52] | 4.4 | 286.8 | 0.002
14 | O=C(N[C@@H]1CCC[C@H](Nc2nc(-c3c[nH]c4c(F)cc(Cl)cc34)ncc2F)C1)c1cncnc1 [Compound 53] | > 25 | > 300 | 0.02
15 | Nc1n[nH]c(C(=O)N[C@@H]2CCC[C@H](Nc3nc(-c4c[nH]c5c(F)cc(Cl)cc45)ncc3F)C2)n1 [Compound 54] | 10.4 | 293.5 | 0.004
16 | O=C(N[C@@H]1CCC[C@H](Nc2nc(-c3c[nH]c4c(F)cc(Cl)cc34)ncc2F)C1)c1ncc(F)cc1F [Compound 55] | 6.6 | > 300 | 0.025
17 | CN(C)c1ccnc(C(=O)N[C@@H]2CCC[C@H](Nc3nc(-c4c[nH]c5c(F)cc(Cl)cc45)ncc3F)C2)c1 [Compound 56] | 10.7 | 281.8 | 0.006

Row | Compound | CC50 at 3 days (in vitro) [µM] | melting point [°C] | IC50 [1] [µM]
18 | Cn1cc(Br)nc1C(=O)N[C@@H]1CCC[C@H](Nc2nc(-c3c[nH]c4c(F)cc(Cl)cc34)ncc2F)C1 [Compound 57] | 5 | 214.9 | 0.01
19 | O=C(N[C@@H]1CCC[C@H](Nc2nc(-c3c[nH]c4c(F)cc(Cl)cc34)ncc2F)C1)c1ncc[nH]1 [Compound 58] | 3.5 | > 300 | 0.001
20 | Nc1cc(C(=O)N[C@@H]2CCC[C@H](Nc3nc(-c4c[nH]c5c(F)cc(Cl)cc45)ncc3F)C2)n[nH]1 [Compound 59] | 7.8 | 245.2 | 0.002
21 | CCn1nccc1C(=O)N[C@@H]1CCC[C@H](Nc2nc(-c3c[nH]c4c(F)cc(Cl)cc34)ncc2F)C1 [Compound 60] | > 25 | > 300 | 0.002
22 | Cn1nccc1C(=O)N[C@@H]1CCC[C@H](Nc2nc(-c3c[nH]c4c(F)cc(Cl)cc34)ncc2F)C1 [Compound 61] | > 25 | > 300 | 0.001
23 | CN1CCC[C@@H]1C(=O)N[C@@H]1CCC[C@H](Nc2nc(-c3c[nH]c4c(F)cc(Cl)cc34)ncc2F)C1 [Compound 62] | 6.9 | 196.5 | 0.73
24 | O=C(N[C@@H]1CCC[C@H](Nc2nc(-c3c[nH]c4c(F)cc(Cl)cc34)ncc2F)C1)c1c[nH]cn1 [Compound 63] | 8.9 | 245 | 0.002
25 | Cn1cncc1C(=O)N[C@@H]1CCC[C@H](Nc2nc(-c3c[nH]c4c(F)cc(Cl)cc34)ncc2F)C1 [Compound 64] | > 25 | 291.8 | 0.003
26 | Nc1nccc(C(=O)N[C@@H]2CCC[C@H](Nc3nc(-c4c[nH]c5c(F)cc(Cl)cc45)ncc3F)C2)n1 [Compound 65] | > 25 | 261.7 | 0.003
27 | Nc1cc(C(=O)N[C@@H]2CCC[C@H](Nc3nc(-c4c[nH]c5c(F)cc(Cl)cc45)ncc3F)C2)ncn1 [Compound 66] | 5.2 | 152.4 | 0.003
28 | Cn1cc(C(=O)N[C@@H]2CCC[C@H](Nc3nc(-c4c[nH]c5c(F)cc(Cl)cc45)ncc3F)C2)nn1 [Compound 67] | 0.84 | 283 | 0.012
29 | Cn1nc(N)cc1C(=O)N[C@@H]1CCC[C@H](Nc2nc(-c3c[nH]c4c(F)cc(Cl)cc34)ncc2F)C1 [Compound 68] | 21 | 267.2 | 0.003
30 | O=C(N[C@@H]1CCC[C@H](Nc2nc(-c3c[nH]c4c(F)cc(Cl)cc34)ncc2F)C1)c1ncn[nH]1 [Compound 69] | 8.4 | 293.5 | 0.002
31 | Cn1cnc(C(=O)N[C@@H]2CCC[C@H](Nc3nc(-c4c[nH]c5c(F)cc(Cl)cc45)ncc3F)C2)n1 [Compound 70] | 9.1 | 291.9 | 0.004
32 | Cc1c[nH]c(C(=O)N[C@@H]2CCC[C@H](Nc3nc(-c4c[nH]c5c(F)cc(Cl)cc45)ncc3F)C2)n1 [Compound 71] | 3.4 | 276.8 | 0.002
33 | CCn1ccnc1C(=O)N[C@@H]1CCC[C@H](Nc2nc(-c3c[nH]c4c(F)cc(Cl)cc34)ncc2F)C1 [Compound 72] | 2.8 | 156.4 | 0.003
34 | Cc1cn(C)nc1C(=O)N[C@@H]1CCC[C@H](Nc2nc(-c3c[nH]c4c(F)cc(Cl)cc34)ncc2F)C1 [Compound 73] | > 25 | 248.4 | 0.009
